# Activity calls are given as the source filed them.
# What was measured:
# [1] = molecular target: T1, Cytochrome P450 1A2 (Homo sapiens, UniProt P05177);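 further: PubChem cytochrome P450 panel assay, CYP1A2 panel member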
# T1 sequence (P05177 whole entry): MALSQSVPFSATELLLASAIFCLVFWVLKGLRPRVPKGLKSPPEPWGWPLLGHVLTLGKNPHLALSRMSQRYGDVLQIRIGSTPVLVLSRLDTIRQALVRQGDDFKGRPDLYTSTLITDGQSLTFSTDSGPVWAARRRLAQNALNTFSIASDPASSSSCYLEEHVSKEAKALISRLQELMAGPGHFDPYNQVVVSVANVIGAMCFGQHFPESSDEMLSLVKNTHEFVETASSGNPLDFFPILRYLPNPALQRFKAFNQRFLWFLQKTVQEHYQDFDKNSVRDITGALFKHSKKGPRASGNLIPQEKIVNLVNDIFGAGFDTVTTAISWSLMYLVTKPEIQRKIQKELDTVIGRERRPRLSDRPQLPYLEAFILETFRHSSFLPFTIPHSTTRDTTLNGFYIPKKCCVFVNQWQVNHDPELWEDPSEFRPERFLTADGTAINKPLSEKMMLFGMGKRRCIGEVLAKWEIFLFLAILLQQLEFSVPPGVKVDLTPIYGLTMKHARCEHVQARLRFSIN
# [2] = molecular target: Cytochrome P450 2D6 (Homo sapiens, UniProt P10635);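 further: CYP2D6 member of a cytochrome P450 panel assay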
# [3] = system: HEK293; test: cells; settings: Homo sapiens
# [4] = non-specific 3'UTR reporter inhibition in Clone20-Shn3RL – cell-based, Renilla luciferase, cherry-picked, counter-screen for Shn3 inhibitor project, dose response (AID 624133); type: functional
# [5] = reduction of Shn3 3'UTR-driven luciferase in osteoblasts – cell-based, Clone20 osteoblasts, firefly luciferase, cherry-picked, dose response (AID 624132); type: functional;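 further: firefly luciferase luminescence from reporter carrying the Shn3 3'UTR in osteoblasts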
# [6] = NIH-3T3 fibroblast cytotoxicity, dose response, cytotoxicity control, cell-based, fluorescence, Alamar Blue, secondary assay (AID 2327); type: functional;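 further: NIH-3T3 mouse fibroblasts cultured with fluconazole at 8 µg/mL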
# [7] = fluconazole-exposed Candida albicans growth modulators – fluorescence, retest, confirmation (AID 2467); type: functional, cell-based
# [8] = loss of viability in HepG2 cells – cell-based, CellTiter-Glo, cherry-picked, cytotoxicity control for Shn3 inhibitor project, dose response (AID 624134); type: functional
# [9] = system: HEK293; test: cells; settings: Homo sapiens; remark: listed apart in the source
# [10] = molecular target: Dual specificity tyrosine-phosphorylation-regulated kinase 1A (Rattus norvegicus, UniProt Q63470); type: biochemical, Homo sapiens
# [11] = THP-1 cell cytotoxicity, dose response, cytotoxicity control for non-replicating M. tuberculosis project (AID 489025); type: functional
# [12] = molecular target: G-protein coupled receptor 55 (Homo sapiens, UniProt Q9Y2T6); test: inhibition of LPI-stimulated GPR55 beta-arrestin translocation – imaging, U2OS, beta-arrestin-GFP, LPI agonist, primary screen (AID 2013); type: functional;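 further: antagonist potency measured as reduced agonist-driven arrestin aggregation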
# [13] = HIV-1 AD8 envelope cell-cell fusion blockers – cherry-pick, dose response (AID 652062); type: functional, cell-based;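 further: luciferase signal from cell-cell fusion driven by HIV-1 clade B AD8 Env; potency is for inhibitors of fusion seen as a drop in luminescence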
# [14] = viability loss in CEM21 cells – cell-based, CellTiter-Glo luminescence, cherry-picked, cytotoxicity control for viral fusion inhibitor project, dose response (AID 652042); type: functional;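 further: potency for signal decrease meaning cytotoxicity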
# [15] = blockers of HIV-1 envelope-mediated cell-cell fusion – cherry-pick, dose response (AID 652057); type: functional, cell-based
# [16] = off-target signal loss in HeLa-CEM21 co-culture – HeLa F-luc CTL cells, cherry-picked, counter-screen for HIV-1 Env fusion inhibitor project, dose response (AID 652040); type: functional, cell-based;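 further: potency for signal decrease marking cytotoxic or nonspecific inhibition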
# [17] = molecular target: Cytochrome P450 2C19 (Homo sapiens, UniProt P33261); test: Cytochrome panel assay with activity outcomes. Panel member name: p450-cyp2c19 Compounds with AC50 equal or less than 10 uM are considered active; type: functional
# [18] = molecular target: T2, Ubiquitin-conjugating enzyme E2 N (Homo sapiens, UniProt P61088); type: functional
# T2 sequence (P61088 whole entry): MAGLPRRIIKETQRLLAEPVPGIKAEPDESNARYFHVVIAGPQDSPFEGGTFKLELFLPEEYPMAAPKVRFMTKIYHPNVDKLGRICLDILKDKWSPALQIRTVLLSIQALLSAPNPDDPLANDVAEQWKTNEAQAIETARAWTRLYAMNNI
# [19] = molecular target: T3, Histone-lysine N-methyltransferase NSD2 (Homo sapiens, UniProt O96028); type: biochemical
# T3 sequence (O96028 whole entry): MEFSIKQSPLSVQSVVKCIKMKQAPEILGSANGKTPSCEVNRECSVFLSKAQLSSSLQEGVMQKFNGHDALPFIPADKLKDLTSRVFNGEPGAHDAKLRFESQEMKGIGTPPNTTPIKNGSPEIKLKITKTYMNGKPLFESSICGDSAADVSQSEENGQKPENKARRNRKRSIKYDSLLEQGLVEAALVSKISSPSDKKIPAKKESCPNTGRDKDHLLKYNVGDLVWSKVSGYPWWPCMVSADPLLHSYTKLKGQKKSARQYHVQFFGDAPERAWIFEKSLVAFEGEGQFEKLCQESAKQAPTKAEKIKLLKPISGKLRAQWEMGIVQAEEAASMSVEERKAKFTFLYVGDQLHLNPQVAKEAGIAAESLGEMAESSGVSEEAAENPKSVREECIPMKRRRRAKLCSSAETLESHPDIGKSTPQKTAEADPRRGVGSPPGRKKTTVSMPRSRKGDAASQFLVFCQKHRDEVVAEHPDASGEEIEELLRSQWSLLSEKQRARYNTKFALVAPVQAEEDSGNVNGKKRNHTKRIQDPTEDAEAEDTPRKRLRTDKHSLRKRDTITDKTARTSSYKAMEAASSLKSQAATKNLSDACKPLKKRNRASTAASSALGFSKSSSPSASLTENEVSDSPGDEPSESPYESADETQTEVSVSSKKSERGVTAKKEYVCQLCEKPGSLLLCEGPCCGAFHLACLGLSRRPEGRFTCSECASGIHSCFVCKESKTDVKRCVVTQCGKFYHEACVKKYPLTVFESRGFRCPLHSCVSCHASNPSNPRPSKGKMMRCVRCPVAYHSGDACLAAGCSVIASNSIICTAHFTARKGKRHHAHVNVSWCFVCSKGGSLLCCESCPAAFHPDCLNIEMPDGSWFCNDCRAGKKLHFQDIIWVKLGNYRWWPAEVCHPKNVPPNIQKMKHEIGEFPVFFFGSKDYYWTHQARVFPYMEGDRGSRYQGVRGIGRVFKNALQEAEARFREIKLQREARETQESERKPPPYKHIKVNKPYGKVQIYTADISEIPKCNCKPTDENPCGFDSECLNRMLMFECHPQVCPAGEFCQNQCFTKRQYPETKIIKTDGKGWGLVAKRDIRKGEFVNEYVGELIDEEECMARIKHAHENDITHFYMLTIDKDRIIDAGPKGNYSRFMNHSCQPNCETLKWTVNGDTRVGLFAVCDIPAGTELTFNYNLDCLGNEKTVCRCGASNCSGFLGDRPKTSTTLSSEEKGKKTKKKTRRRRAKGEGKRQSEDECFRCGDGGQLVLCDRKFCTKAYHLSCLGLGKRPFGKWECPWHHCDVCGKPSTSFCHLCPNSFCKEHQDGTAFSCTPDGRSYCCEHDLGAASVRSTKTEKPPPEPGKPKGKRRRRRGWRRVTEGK
# [20] = molecular target: T2, Ubiquitin-conjugating enzyme E2 N; type: functional; remark: listed apart in the source
# [21] = molecular target: T4, Bcl-2-related protein A1 (Mus musculus, UniProt Q07440); type: functional;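 further: confirmatory dose–response counterscreen on Bfl-1, used to check hits from a UBC13 polyubiquitin inhibitor campaign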
# T4 sequence (Q07440 whole entry): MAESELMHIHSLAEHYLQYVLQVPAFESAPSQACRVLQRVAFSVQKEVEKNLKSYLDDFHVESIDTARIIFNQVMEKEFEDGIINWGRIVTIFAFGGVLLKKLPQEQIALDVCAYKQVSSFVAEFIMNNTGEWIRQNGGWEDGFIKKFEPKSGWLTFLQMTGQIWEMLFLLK
# [22] = system: Escherichia coli; test: microbe, parasite or virus in culture
# [23] = molecular target: T5, High affinity choline transporter 1 (Homo sapiens, UniProt Q9GZV3); test: human choline transporter blockers, potency – cell-based, 5-point CRC, membrane potential dye, dose response (AID 504840); type: functional
# T5 sequence (Q9GZV3 whole entry): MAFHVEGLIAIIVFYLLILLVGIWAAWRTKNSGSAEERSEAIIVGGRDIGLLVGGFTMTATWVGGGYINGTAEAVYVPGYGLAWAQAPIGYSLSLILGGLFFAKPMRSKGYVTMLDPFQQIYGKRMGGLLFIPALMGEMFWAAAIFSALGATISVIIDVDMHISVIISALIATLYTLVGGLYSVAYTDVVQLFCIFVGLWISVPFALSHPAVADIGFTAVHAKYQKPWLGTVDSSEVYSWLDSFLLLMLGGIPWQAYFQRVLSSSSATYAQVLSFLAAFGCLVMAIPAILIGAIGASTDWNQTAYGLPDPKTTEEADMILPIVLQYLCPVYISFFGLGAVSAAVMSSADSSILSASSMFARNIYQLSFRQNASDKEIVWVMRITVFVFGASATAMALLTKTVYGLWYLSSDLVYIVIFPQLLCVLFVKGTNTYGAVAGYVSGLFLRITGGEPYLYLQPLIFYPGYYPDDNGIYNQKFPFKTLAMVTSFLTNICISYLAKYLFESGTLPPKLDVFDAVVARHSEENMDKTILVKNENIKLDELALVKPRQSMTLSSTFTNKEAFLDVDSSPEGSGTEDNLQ
# [24] = system: H9c2; test: cells; type: functional, cell-based; settings: Rattus norvegicus, H9c2, Myocardium;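 further: confirmatory concentration-response retest of ultra-high-throughput screening hits for modulation of myocardial damage; cell death induced by hydrogen peroxide oxidative stress; compound pretreatment for 60 min then peroxide exposure for 2 h; potency is for protecting the cells against peroxide damage rather than for killing them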
# [25] = molecular target: T6, Hexokinase HKDC1 (Homo sapiens, UniProt Q2TB90); test: analog inhibition of human HKDC1 activity – biochemical, set 2, SAR follow-up (AID 588355); type: functional
# T6 sequence (Q2TB90 whole entry): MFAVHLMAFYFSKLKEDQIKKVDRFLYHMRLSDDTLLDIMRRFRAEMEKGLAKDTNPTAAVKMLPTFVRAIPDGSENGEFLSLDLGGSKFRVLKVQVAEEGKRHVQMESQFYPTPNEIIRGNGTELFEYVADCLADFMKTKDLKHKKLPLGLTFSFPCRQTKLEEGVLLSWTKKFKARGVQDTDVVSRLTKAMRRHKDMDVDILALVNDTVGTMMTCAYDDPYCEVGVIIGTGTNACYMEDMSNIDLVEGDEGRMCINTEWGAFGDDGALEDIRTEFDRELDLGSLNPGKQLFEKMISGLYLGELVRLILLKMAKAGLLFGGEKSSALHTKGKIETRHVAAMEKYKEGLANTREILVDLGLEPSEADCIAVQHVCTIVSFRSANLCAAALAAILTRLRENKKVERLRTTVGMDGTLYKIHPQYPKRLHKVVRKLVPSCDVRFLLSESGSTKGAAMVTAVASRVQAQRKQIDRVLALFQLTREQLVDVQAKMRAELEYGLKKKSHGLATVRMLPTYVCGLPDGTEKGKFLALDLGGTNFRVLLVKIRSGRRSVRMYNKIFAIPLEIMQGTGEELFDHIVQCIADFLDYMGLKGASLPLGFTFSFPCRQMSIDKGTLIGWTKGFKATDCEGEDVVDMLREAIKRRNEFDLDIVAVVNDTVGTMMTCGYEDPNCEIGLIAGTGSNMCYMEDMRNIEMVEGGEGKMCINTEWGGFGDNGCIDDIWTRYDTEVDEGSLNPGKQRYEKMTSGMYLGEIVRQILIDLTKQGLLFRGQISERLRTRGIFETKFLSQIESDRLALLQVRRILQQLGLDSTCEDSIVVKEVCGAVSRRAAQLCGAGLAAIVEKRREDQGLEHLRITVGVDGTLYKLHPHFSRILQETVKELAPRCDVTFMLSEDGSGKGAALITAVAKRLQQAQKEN
# [26] = molecular target: Hexokinase-1 (Homo sapiens, UniProt P19367); test: hexokinase 1 activity inhibitors, potency – biochemical, set 2, resazurin fluorescence coupled readout, selectivity assay for HKDC1 inhibitor project, SAR follow-up (AID 588356); type: functional
# Chain of Hexokinase-1 (P19367 whole entry): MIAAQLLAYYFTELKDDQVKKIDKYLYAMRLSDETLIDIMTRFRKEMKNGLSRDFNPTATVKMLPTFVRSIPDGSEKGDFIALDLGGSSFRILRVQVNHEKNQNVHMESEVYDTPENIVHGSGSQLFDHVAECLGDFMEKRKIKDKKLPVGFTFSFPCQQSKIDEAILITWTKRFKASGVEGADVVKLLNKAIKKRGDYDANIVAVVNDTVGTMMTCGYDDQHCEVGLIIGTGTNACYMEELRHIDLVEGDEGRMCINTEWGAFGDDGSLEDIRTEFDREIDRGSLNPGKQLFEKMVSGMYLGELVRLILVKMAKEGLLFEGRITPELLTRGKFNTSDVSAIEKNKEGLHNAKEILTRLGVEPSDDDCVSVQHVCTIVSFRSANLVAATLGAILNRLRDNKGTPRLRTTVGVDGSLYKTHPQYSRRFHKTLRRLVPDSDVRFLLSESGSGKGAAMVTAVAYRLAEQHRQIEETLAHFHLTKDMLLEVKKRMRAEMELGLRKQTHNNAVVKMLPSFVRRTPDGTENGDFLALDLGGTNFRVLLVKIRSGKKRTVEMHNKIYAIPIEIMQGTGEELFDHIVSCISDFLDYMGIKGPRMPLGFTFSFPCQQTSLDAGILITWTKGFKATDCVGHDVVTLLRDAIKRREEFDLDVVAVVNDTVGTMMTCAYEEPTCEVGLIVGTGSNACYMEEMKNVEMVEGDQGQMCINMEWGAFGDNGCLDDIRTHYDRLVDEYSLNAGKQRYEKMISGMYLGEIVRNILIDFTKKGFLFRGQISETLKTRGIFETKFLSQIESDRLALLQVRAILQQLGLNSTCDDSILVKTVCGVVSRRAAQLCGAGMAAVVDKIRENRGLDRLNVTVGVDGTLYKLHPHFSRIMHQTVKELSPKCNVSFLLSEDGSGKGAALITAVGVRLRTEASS
# Chain of Cytochrome P450 2D6 (P10635 whole entry): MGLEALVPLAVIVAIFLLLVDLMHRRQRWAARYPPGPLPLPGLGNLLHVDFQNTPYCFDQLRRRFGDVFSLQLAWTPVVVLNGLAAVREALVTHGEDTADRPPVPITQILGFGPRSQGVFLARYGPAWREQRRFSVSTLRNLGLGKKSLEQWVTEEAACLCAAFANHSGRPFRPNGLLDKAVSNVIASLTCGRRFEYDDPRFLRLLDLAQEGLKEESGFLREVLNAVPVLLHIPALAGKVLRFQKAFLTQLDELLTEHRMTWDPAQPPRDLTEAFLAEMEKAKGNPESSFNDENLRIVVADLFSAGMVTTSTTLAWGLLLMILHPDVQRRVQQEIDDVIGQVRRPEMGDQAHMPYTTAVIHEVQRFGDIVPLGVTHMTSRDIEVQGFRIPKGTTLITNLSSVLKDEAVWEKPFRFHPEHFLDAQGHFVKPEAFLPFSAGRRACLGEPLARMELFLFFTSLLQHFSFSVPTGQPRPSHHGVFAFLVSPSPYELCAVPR
# Chain of Cytochrome P450 2C19 (P33261 whole entry): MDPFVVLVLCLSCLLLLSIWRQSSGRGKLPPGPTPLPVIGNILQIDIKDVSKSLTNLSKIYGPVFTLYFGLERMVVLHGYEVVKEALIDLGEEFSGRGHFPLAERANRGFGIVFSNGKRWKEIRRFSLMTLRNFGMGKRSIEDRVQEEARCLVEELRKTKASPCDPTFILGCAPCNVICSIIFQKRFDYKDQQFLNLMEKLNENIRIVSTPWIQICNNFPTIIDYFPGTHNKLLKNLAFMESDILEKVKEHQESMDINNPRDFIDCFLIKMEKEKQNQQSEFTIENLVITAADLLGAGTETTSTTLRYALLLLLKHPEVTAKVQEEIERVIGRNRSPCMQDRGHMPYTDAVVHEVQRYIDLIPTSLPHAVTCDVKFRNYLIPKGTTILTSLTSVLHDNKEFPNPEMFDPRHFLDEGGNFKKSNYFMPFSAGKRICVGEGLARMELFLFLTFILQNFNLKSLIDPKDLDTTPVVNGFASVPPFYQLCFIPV
# Chain of G-protein coupled receptor 55 (Q9Y2T6 whole entry, the tested form may be a part): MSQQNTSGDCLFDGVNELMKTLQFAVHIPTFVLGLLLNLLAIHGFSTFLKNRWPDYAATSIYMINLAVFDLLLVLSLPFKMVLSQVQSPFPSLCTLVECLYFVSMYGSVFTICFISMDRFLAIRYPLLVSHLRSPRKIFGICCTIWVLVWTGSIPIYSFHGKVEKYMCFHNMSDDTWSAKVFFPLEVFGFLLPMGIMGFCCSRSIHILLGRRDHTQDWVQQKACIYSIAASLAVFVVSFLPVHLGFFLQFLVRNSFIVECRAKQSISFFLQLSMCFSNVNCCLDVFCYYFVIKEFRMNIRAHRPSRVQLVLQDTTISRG
smiles,measurement,setting,value
CC1=NN(c2ccccc2)C(=O)[C@@H]1/N=N\c1ccc([As](=O)(O)O)c(O)c1,AC50,[1],5.01 µM (inconclusive)
same,AC50,[2],inconclusive
O=C(Oc1c(CN2CCOCC2)cc(Cl)c2cccnc12)c1ccccc1Cl,EC50,[3],> 59.6 µM (inactive)
same,AC50,[4],9.15 µM (active)
same,AC50,[5],4.59 µM (active)
same,EC50,[6],> 160 µM (inactive)
same,EC50,[7],2.86 µM (active)
same,AC50,[8],7.37 µM (active)
same,EC50,[9],> 59.6 µM (inactive)
O=c1cc(-c2ccccc2Cl)oc2c([N+](=O)[O-])c(O)cc(O)c12,AC50,[10],1.22 µM (active)
same,CC50,[11],> 40 µM (active)
Cc1ccc(C(O)(c2ccccc2)c2ccccc2C(C)N(C)C)c(C)c1 (configuration not stated),IC50,[12],0.799 µM (active)
same,AC50,[13],30.5 µM (active)
same,AC50,[14],19.6 µM (active)
same,AC50,[15],20.1 µM (active)
same,AC50,[16],39 µM (active)
NS(=O)(=O)c1cc(C(=O)O)c(Cl)c([N+](=O)[O-])c1Cl,AC50,[1],1.26 µM (inconclusive)
same,AC50,[2],inconclusive
same,AC50,[17],inconclusive
CNCc1cc(Br)c(OCC(=O)Nc2ccccc2OC)c(OC)c1,IC50,[18],8.66 µM (active)
same,AC50,[19],14.7 µM (active)
same,IC50,[20],9.34 µM (active)
same,IC50,[21],> 20 µM (inactive)
Cc1ccc2oc3c(c(=O)c2c1)C(c1cccs1)N(CCCN(C)C)C3=O (configuration not stated),AC50,[22],27.1 µM (active)
O=C(NC1CCCCC1)C(c1ccc2ncccc2c1)N(Cc1ccccc1)C(=O)c1ccc2c(c1)OCCO2 (configuration not stated),IC50,[23],10 µM (active)
same,IC50,[24],> 79 µM (inactive)
COc1ccc(N(C(=O)c2snc(C(N)=O)c2N)C(C(=O)NC2CCCC2)c2ccco2)cc1 (configuration not stated),IC50,[18],8.84 µM (active)
same,IC50,[20],8.44 µM (active)
same,IC50,[21],> 20 µM (inactive)
O=C(c1ccco1)N1CCCC(c2nc(O)c3nnn(Cc4ccc(F)cc4)c3n2)C1 (configuration not stated),AC50,[22],42.9 µM (active)
CCCCN1C(=O)C(NC(C)=O)c2cc(C)ccc21 (configuration not stated),IC50,[25],> 80 µM (inactive)
same,IC50,[26],> 80 µM (inactive)

# From ChEMBL document CHEMBL1201862, “PubChem BioAssay data set” (2004)
